The text below walks through data of patent US10738093B2, “Discovery of cationic nonribosomal peptides as Gram-negative antibiotics through global genome mining” (The Hong Kong University of Science and Technology, priority 2018, dated 2020).

Assay [1] concerns Escherichia coli ATCC 25922. Description: microbe, parasite or virus in culture. Format: cell-based. The method, then:
(§1) Minimum inhibitory concentration (MIC) was determined by broth microdilution according to CLSI guidelines. The test medium for most species was Mueller-Hinton broth (MHB). Bacteria were grown overnight to early stationary phase and adjusted in MHB to 5.0×10^5 colony-forming units per mL (c.f.u./mL) in the wells of 96-well microtiter plates, mixed with varying concentrations of test compounds and incubated at 37° C. for 24 h. […] MHBs containing 10% fetal bovine serum (Gibco), 21 mM MgCl, or 1.0 mg/ml LPS (lipopolysaccharides from Escherichia coli O55:B5, Sigma-Aldrich) were used to test their inhibitory effects.

The next assay concerns Bacillus subtilis 168. Type of assay: cell-based. The conditions noted are these: for MIC Bs: Table 2, B. subtilis 168. On the procedure: as §1
The test system of assay [2] is Pseudomonas aeruginosa PAO1. Type of assay: cell-based. The method, then: as §1
Assay [3] deals with Methicillin-resistant Staphylococcus aureus ATCC 43300. Type of assay: cell-based. The conditions noted are these: for MIC MRSA: Table 2, Methicillin-resistant Staphylococcus aureus ATCC 43300. The method, then: as §1
Assay [4] relates to Colistin-resistant E. coli (E. coli ATCC 25922 carrying mcr-1). Format: cell-based, Escherichia coli. The method, then:
as §1

Assay [5] concerns E. coli Top10. Format: cell-based, Escherichia coli. The conditions noted are these: E. coli Top10. On the procedure: as §1
Assay [6] relates to Escherichia coli ATCC 25922. Description: Resistance acquisition during serial passaging. The conditions noted are these: serial passaging at subinhibitory concentrations over 30 days. Format: cell-based. The method, then:
Escherichia coli ATCC 25922 was inoculated into MHB overnight at 37° C. with continuous shaking. Cells were diluted 10,000 times in MHB to about 1×10^6 c.f.u./mL. […] Plates with bacteria were incubated at 37° C. without shaking. […] This process was repeated for 30 d, and the final MIC was confirmed by the same antibacterial assay described above. The experiment was performed in quadruplicate, and on each day, the sample that developed the highest resistance was measured to plot the curve.

In assay [7] the test system is Saccharomyces cerevisiae VL-48. Description: MIC, Saccharomyces cerevisiae. Format: cell-based. The conditions noted are these: for MIC Sc: Table 2, Saccharomyces cerevisiae VL-48. The method, then: as §1
For the next assay, the system named is Acinetobacter baumannii. Format: cell-based. The conditions noted are these: Acinetobacter baumannii; for MIC Ab: Table 2. On the procedure: as §1
Assay [8] concerns Enterobacter cloacae NRRL-B-413. Type of assay: cell-based. The conditions noted are these: Enterobacter cloacae NRRL-B-413; for MIC En: Table 2. On the procedure: as §1
The next assay deals with Candida albicans. Format: cell-based. The conditions noted are these: Candida albicans; for MIC Ca: Table 2. The method, then:
as §1

Another assay relates to E. cloacae NRRL-B-425. Type of assay: cell-based, Enterobacter cloacae. The conditions noted are these: E. cloacae NRRL-B-425. On the procedure: as §1
Assay [9] deals with E. coli Top10. The assay is described as follows: Time-kill assay. The conditions noted are these: 10 times the MIC. Type of assay: cell-based, Escherichia coli. On the procedure: An overnight culture of E. coli Top10 or Pseudomonas aeruginosa PAO1 cells was diluted 1:10,000 in MHB and incubated at 37° C. with agitation at 180 rpm for 2 h (early exponential). The bacteria were then challenged with antibiotics at 10×MIC, brevicidine (20 μg/ml), laterocidine (20 μg/ml) or polymyxin B (10 μg/ml) at room temperature without shaking. An untreated sample of cells was used as a negative control. At intervals, 10 μL aliquots were removed, centrifuged at 10,000 g for 1 min and resuspended in 1.0 mL of sterile PBS. Tenfold-serially-diluted suspensions were plated on MHB agar plates and incubated at 37° C. overnight. Colonies were counted and the number of c.fu. per mL was calculated. For analysis of lysis, 300 μL of culture (OD600=1.0) were treated with 10×MIC of antibiotics for 24 h. Experiments were performed in triplicate.

Assay [10] can be described thus: LPS binding by isothermal titration calorimetry. More on the design: species or system Escherichia coli. The conditions noted are these: ITC, FIGS. 18a-18b. The method, then:
Microcalorimetric experiments of peptide binding to LPS were performed on an MCS isothermal titration calorimeter (ITC) (Microcal, Northampton, Mass.) at 37° C. LPS was prepared as a 50 μM aqueous suspension in 20 mM HEPES (pH 7.0) buffer by suspension, sonication and temperature cycling between 5° C. and 70° C. This suspension was stored at 4° C. overnight prior to use. 100 μM peptide solutions (brevicidine and polymyxin B) were prepared in the same buffer and all solutions were degassed prior to use by stirring under vacuum for 5 min at 37° C. After thermal equilibration, 5 μL aliquots of the peptide solution were added every 3 min into the lipid-containing cell at 37° C. and stirred constantly. The change in heat during the titration steps was registered in real time and raw data were processed using the Origin® 7 software provided with the instrument. In control experiments, the corresponding peptide solution (or LPS solution) was injected into the buffer without LPS (or without peptide).

Assay [11] concerns Klebsiella pneumoniae NRRL-B-408. Type of assay: cell-based. The conditions noted are these: Klebsiella pneumoniae NRRL-B-408. On the procedure:
as §1

Assay [12] deals with K. pneumoniae NRRL-B-3521. Format: cell-based, Klebsiella pneumoniae. The conditions noted are these: K. pneumoniae NRRL-B-3521. The method, then: as §1
Where [13] appears, read: Table 2, Escherichia coli ATCC 25922.
Where [14] appears, read: Table 2, Pseudomonas aeruginosa PAO1.
Where [15] appears, read: E. coli ATCC 25922 + LPS (1.0 mg L^−1).
[16] abbreviates: E. coli ATCC 25922 + Mg^2+ (21 mM).

Values after ≈ are worked out from the molar mass of the structure shown. Like-named read-outs stand apart in the source and are kept apart here. Positions of bridges follow the written chain, without caps; N, C: chain ends. Non-standard residues stand in square brackets, D forms with d. Residues, ends and D or L forms follow the SMILES beside them. *: point of attachment. Octanoyl(7-Me) = CC(C)CCCCCC(=O)*; dOrn = NCCC[C@@H](N)C(=O)O; Orn = NCCC[C@H](N)C(=O)O Where only a bound is given, the exact number is not on record here.

With `CC[C@H](C)[C@@H]1NC(=O)[C@@H](NC(=O)[C@@H](N)Cc2c[nH]c3ccccc23)[C@@H](C)OC(=O)CNC(=O)CNC(=O)[C@H](CC(N)=O)NC1=O` [Compound 8] (H-WTINGG; ester 2-C), the “MIC Ec” value in assay [1] (setting [13]) is listed as “ND (ND >64 μg/ml)”. The “MIC Bs” value against Bacillus subtilis 168 is “ND (ND >64 μg/ml)”. Besides, in assay [2] (setting [14]), the “MIC Pa” value is given as “ND (ND >64 μg/ml)”. The “MIC MRSA” value in [3] is “ND (ND >64 μg/ml)”.

For the molecule colistin [reference compound], the MIC in [4] is 16 µg/mL; in the assay with E. coli Top10 [5], 2 µg/mL; in [1] (E. coli ATCC 25922 + 10% serum), 2 to 4 µg/mL; in [1] (setting [15]), more than 64 µg/mL; in assay [1] (setting [16]), more than 64 µg/mL; in assay [1] (Escherichia coli ATCC 25922) it was 2 µg/mL. Besides, the MIC in assay [2] (Pseudomonas aeruginosa PAO1) came to 1 µg/mL.

For `CC(C)CCCCCC(=O)N[C@H](CO)C(=O)N[C@H](Cc1ccc(O)cc1)C(=O)N[C@H](Cc1c[nH]c2ccccc12)C(=O)N[C@H](CCCN)C(=O)N[C@@H](CCCN)C(=O)NCC(=O)N[C@H](CCCN)C(=O)O` [Compound 9] ({Octanoyl(7-Me)}-[dS][dY][dW][dOrn][Orn]G[dOrn]-OH), the “MIC Ec” value in assay [1] (setting [13]) is on record as “ND (ND >64 μg/ml)”. In the assay on Bacillus subtilis 168, the “MIC Bs” value was “ND (ND >64 μg/ml)”. In [2] (setting [14]), the “MIC Pa” value was “ND (ND >64 μg/ml)”. The “MIC MRSA” value in assay [3] is “ND (ND >64 μg/ml)”.

Consider `O=C(O)c1cn(C2CC2)c2cc(N3CCNCC3)c(F)cc2c1=O` [ciprofloxacin, reference compound], for which the development of resistance entry in assay [6] is “rapidly developed resistance”.

As to `C[C@H]1COc2c(N3CCN(C)CC3)c(F)cc3c(=O)c(C(=O)O)cn1c23` [Levofloxacin, reference compound], the MIC in assay [1] (Escherichia coli, ATCC25922, positive control of the mouse thigh study, read-out: MIC) came to 0.032 µg/mL (≈ 0.0886 µM).

As for `NCCC[C@H](N)C(=O)NCC(=O)N[C@H](CCCN)C(=O)O` [Compound 7] (H-[Orn]-Gly-[dOrn]-OH), in assay [1] (setting [13]), the “MIC Ec” value was “ND (ND >64 μg/ml)”. The “MIC Bs” value against Bacillus subtilis 168 is “ND (ND >64 μg/ml)”. In assay [2] (setting [14]), the “MIC Pa” value was “ND (ND >64 μg/ml)”. In assay [3], the “MIC MRSA” value is reported as “ND (ND >64 μg/ml)”.

In the case of `CC[C@H](C)[C@@H]1NC(=O)[C@@H](NC(=O)[C@@H](N)Cc2c[nH]c3ccccc23)[C@@H](C)OC(=O)[C@@H](CO)NC(=O)CNC1=O` [Compound 4] (H-WTIG[dS]; ester 2-C), in assay [1] (setting [13]), the “MIC Ec” value is given as “ND (ND >64 μg/ml)”. The “MIC Sc” value in assay [7] is on record as “ND (ND >64 μg/ml)”. For the same molecule, in the assay with Bacillus subtilis 168, the “MIC Bs” value is on record as “ND (ND >64 μg/ml)”. Also, the “MIC Pa” value in [2] (setting [14]) is on record as “ND (ND >64 μg/ml)”. In addition, the “MIC Ab” value with Acinetobacter baumannii is “ND (ND >64 μg/ml)”. In addition, the “MIC En” value in assay [8] was “ND (ND >64 μg/ml)”. Also, the “MIC MRSA” value in [3] is listed as “ND (ND >64 μg/ml)”. Besides, the “MIC Ca” value in the assay with Candida albicans is “ND (ND >64 μg/ml)”.

`CC[C@H](C)[C@H](NC(=O)[C@@H](NC(=O)[C@H](Cc1c[nH]c2ccccc12)NC(=O)[C@@H](CCCN)NC(=O)CNC(=O)[C@@H](CCCN)NC(=O)[C@@H](CCCN)NC(=O)[C@@H](Cc1c[nH]c2ccccc12)NC(=O)[C@@H](Cc1ccc(O)cc1)NC(=O)[C@@H](CO)NC(=O)CCCCCC(C)C)[C@@H](C)O)C(=O)N[C@@H](CC(N)=O)C(=O)NCC(=O)NCC(=O)O` [Compound 11] ({Octanoyl(7-Me)}-[dS][dY][dW][dOrn][dOrn]G[dOrn]WTINGG-OH): the “MIC Ec” value in assay [1] (ATCC 25922) came to 16 µg/mL (≈ 9.86 µM). The “MIC Bs” value in the assay with Bacillus subtilis 168 is “ND (ND >64 μg/ml)”. In addition, in assay [2] (PAO1), the “MIC Pa” value was found to be 8 µg/mL (≈ 4.93 µM). Further, the “MIC MRSA” value in assay [3] was “ND (ND >64 μg/ml)”.

Take `CC(C)CCCCCC(=O)N[C@H](CO)C(=O)N[C@H](Cc1ccc(O)cc1)C(=O)N[C@H](Cc1c[nH]c2ccccc12)C(=O)N[C@H](CCCN)C(=O)O` [Compound 10] ({Octanoyl(7-Me)}-[dS][dY][dW][dOrn]-OH): in assay [1] (setting [13]), the “MIC Ec” value is “ND (ND >64 μg/ml)”. The “MIC Bs” value against Bacillus subtilis 168 is “ND (ND >64 μg/ml)”. In assay [2] (setting [14]), the “MIC Pa” value is “ND (ND >64 μg/ml)”. For the same molecule, the “MIC MRSA” value in assay [3] is on record as “ND (ND >64 μg/ml)”.

In the case of polymyxin B [reference compound], the MIC was 64 µg/mL in the assay on E. cloacae NRRL-B-425; 16 µg/mL in [4]; 2 µg/mL with E. coli Top10 [5]; 1 to 2 µg/mL in assay [1] (E. coli ATCC 25922 + 10% serum); more than 64 µg/mL in assay [1] (setting [15]); more than 64 µg/mL in [1] (setting [16]). Also, the MIC in assay [1] (Escherichia coli ATCC 25922) was 1 µg/mL; in [7] (Saccharomyces cerevisiae), more than 64 µg/mL; against Bacillus subtilis 168 (Bacillus subtilis 168) it was 4 µg/mL; in assay [2] (Pseudomonas aeruginosa PAO1) it was 1 µg/mL; with Acinetobacter baumannii it was 4 µg/mL; in assay [8], 8 µg/mL. Also, the MIC in [3] (Staphylococcus aureus (MRSA)) was 32 µg/mL; against Candida albicans, more than 64 µg/mL; in assay [11], 16 µg/mL; in assay [12], 2 µg/mL. In the assay with E. coli Top10 [9], the “time of exposure to significant reduction of viable cells” value was found to be 5 min. The “time to killing all cells” value in the assay with E. coli Top10 [9] is not above 30 min. Also, the “MIC Ec” value in assay [1] (setting [13]) turned out to be 1 µg/mL. Moreover, the “MIC Sc” value in assay [7] was “ND (ND >64 μg/ml)”. For the same molecule, in assay [10], the “binding to LPS” value is “strong binding to LPS”. In the assay with Bacillus subtilis 168, the “MIC Bs” value came out at 4 µg/mL. Besides, the “MIC Pa” value in assay [2] (setting [14]) turned out to be 1 µg/mL. The “MIC Ab” value in the assay on Acinetobacter baumannii was found to be 4 µg/mL. Further, the “MIC En” value in [8] was determined as 8 µg/mL. Also, the “MIC MRSA” value in assay [3] was 32 µg/mL. Further, the “MIC Ca” value in the assay with Candida albicans is on record as “ND (ND >64 μg/ml)”.
